This note sets out measurements from PubChem BioAssay AID463229 (Broad Institute, 2010).

Some results are limits rather than exact numbers.

Usually AC50 stands for the concentration giving half of the maximal activity seen.

This assay deals with INS-1E rat beta cells, no cytokines, CellTiter-Glo ATP, 48 h. The assay is described as follows: ATP level change in INS-1E without cytokines, dose response, counter-screen for beta-cell apoptosis protection project, INS-1E rat cells, ATP luminescence, cherry pick (AID 463229). Background: A counterscreen serves to expose hits that act by an unwanted route or on another target.
Regarding `Cc1ccc([N+](=O)[O-])cc1N(CC(=O)Nc1ccc(S(=O)(=O)Nc2cccc(C(F)(F)F)c2)cc1)S(C)(=O)=O`, the AC50 is 4.1 µM.
In the case of `Cc1ccc(-n2cccc2C(=S)N=P(N(C)C)(N(C)C)N(C)C)cc1`, the AC50 was 7.11 µM.
As for `Nc1c(Cl)ncnc1N/N=C/c1ccc2ccccc2n1`, the AC50 was 4.38 µM.
Take `O=C(NCc1cccnc1)/C(=C\c1ccc(-c2ccc(Cl)c(Cl)c2)o1)S(=O)(=O)c1ccccc1`: the AC50 was 4.62 µM.
As to `O=C(N/N=C/c1cc(Br)ccc1OC(=O)c1ccc(Br)cc1)c1ccncc1`, the AC50 is 6.01 µM.
Turning to `O=[N+]([O-])c1ccc(O)c(/C=N/Nc2ccccn2)c1`, the AC50 is 1.84 µM.
For `FC(F)(F)c1ccc(CN2C[C@@H]3C(c4ccc(C(F)(F)F)cc4)C4(c5cccnc5)CC3(C4)[C@H]2c2ccccc2)cc1` (some centres not stated), the AC50 is 5.15 µM.
Consider `CCc1cc(CNC(=O)c2ccc3nc(Cc4ccc(OC)c(OC)c4)oc3c2)on1`, for which the AC50 was 9.39 µM.
Consider `Cc1cccc2nc(CSc3nc4[nH]ncc4c(=O)n3-c3cccc(Cl)c3)cc(=O)n12`, for which the AC50 is 7.35 µM.
Take `CCOC(=O)c1cnc(-n2nc(C)cc2C)nc1NCc1ccccc1`: the AC50 is 7.8 µM.
In the case of `COc1cccc(/C=N/NC(=O)c2[nH]nc3c2CCc2ccccc2-3)c1O`, the AC50 was 4.25 µM.
The figure for `COc1cccc(/C=N/NC(=O)CN2CC(c3ccccc3)CC2=O)c1O` (configuration not stated) is 18.7 µM.
`COc1ccc(C2/C=C\CN(C(=O)Nc3ccc(C(F)(F)F)cc3)CC(=O)N2Cc2ccc(F)cc2)cc1` (configuration not stated): the AC50 was 7.66 µM.
`Cc1nc(Nc2ccc(Cl)c(Cl)c2)sc1C(=O)Nc1ccccc1`: the AC50 is 9.24 µM.
With `O=C(Nc1cccc([N+](=O)[O-])c1)c1cc2ccccc2cc1O`, the concentration at half-maximal activity (AC50) was 4.38 µM.
Consider `CCOC(=O)/C(=C\c1ccc([N+](=O)[O-])cc1)C(=O)c1cc(C(C)=O)c(Nc2ccccc2)s1`, for which the AC50 is 2.41 µM.
For the molecule `COc1cccc(/C=N/NC(=O)c2ccoc2C)c1O`, the AC50 was 11 µM.
On to `COc1ccc(-n2c(-c3ccc(Cl)cc3)c[n+]3c2CCCCC3)cc1`, for which the AC50 was 1.6 µM.
The figure for `N=c1ccn(Cc2ccc(Cl)cc2Cl)cc1` is 7.81 µM; for `O=C(Nc1nc(-c2ccccn2)cs1)Nc1ccc(F)cc1F` it is 10.2 µM.
`O=C1C=C(N2CCOCC2)c2ccccc2C1=O`: the AC50 is 6.13 µM.
The result for `CCCOCc1ccc(O)c2ncccc12` reads 7.79 µM; that for `O=C1C=C(c2cccs2)C[C@H](c2ccccc2)[C@H]1n1nnc([N+](=O)[O-])n1`, 12.8 µM; that for `CN(C)S(=O)(=O)c1ccc(Nc2nc(C3CC3)nc3c2nnn3Cc2ccccc2Cl)cc1`, 7 µM.
Consider `Cn1c2c(c(=O)n(C)c1=O)C(C(F)(F)F)(C(F)(F)F)N=C(c1ccc(Cl)cc1)N2`, for which the AC50 is 0.56 µM.
The figure for `Cc1ccc(S(=O)(=O)/N=C2/C=C(Sc3ncn[nH]3)C(=O)c3ccccc32)cc1` is 8.08 µM; for `O=C(Oc1c(Cl)cc(Cl)c2cccnc12)c1cccs1` it is 15 µM; for `O=C(/C=C/c1ccccc1)NC(=S)NNC(=O)c1cnccn1` it is 5.91 µM.
In the case of `Cc1cc(C)cc(OCC(O)CN2CCC(CN3C(=O)c4cccc5cccc(c45)C3=O)CC2)c1` (configuration not stated), the AC50 is 7.97 µM.
In the case of `Cc1cccc(CNc2ncnc3ccc(-c4ccc5c(c4)OCCO5)cc23)c1`, the AC50 is 7.27 µM.
`CC(=O)Oc1c(C)cc(Cl)cc1C(=O)Nc1ccc([N+](=O)[O-])cc1Cl`: the AC50 was 1.43 µM.
In the case of `CC(=O)c1c(C)oc2c1C(=O)c1ccccc1C2=O`, the AC50 is 14.4 µM.
On to `Cc1ccc(-c2nc(NC(=O)c3nn(C)cc3[N+](=O)[O-])sc2C)cc1`, for which the concentration at half-maximal activity (AC50) is 5.47 µM.
The figure for `COC(=O)[C@H](CC(C)C)N(Cc1ccccc1)S(=O)(=O)N(Cc1ccc(OC)cc1)[C@@H](CC(C)C)C(=O)OC` is 5.08 µM; for `Cc1ccc(NC2=CC(=O)C(=O)c3ccccc32)cc1` it is 7.65 µM.
For the molecule `COc1ccc([C@H]2CC(=O)C=C(c3ccnc4ccc(Cl)cc34)C2)cc1`, the AC50 is 6.01 µM.
Take `CC(=O)c1cccc(NS(=O)(=O)c2ccc(N/C=C\C(=O)c3ccc(F)cc3)cc2)c1`: the AC50 is 4.97 µM.
In the case of `CC1=NNC(=O)/C1=C\c1cn(-c2ccccc2)nc1-c1ccc(Cl)cc1`, the AC50 is 10.9 µM.
With `Cc1ccc(/C=C/C(=O)c2ccc([N+](=O)[O-])o2)cc1`, the AC50 is 7.11 µM.
`CCN(CC)S(=O)(=O)c1cc([N+](=O)[O-])ccc1NNC(=O)Nc1ccc(Cl)c(Cl)c1`: the AC50 is 6.54 µM.
As to `Cc1cc2nc(-c3ccc[nH]c3=O)[nH]c2cc1C`, the AC50 is 2.42 µM.
Take `O=C(N/N=C\c1c(O)ccc2ccccc12)c1ccc(S(=O)(=O)N2CCCCC2)cc1`: the AC50 was 1.11 µM.
Consider `O=C(CCSc1nc2ccccc2s1)N/N=C/c1c(O)ccc2ccccc12`, for which the AC50 is 5.5 µM.
The figure for `O=c1c2ccccc2nc(COc2ccccc2)n1/N=C/c1cc([N+](=O)[O-])ccc1O` is 14.7 µM; for `CCC(C)(C)c1ccc(OCCCC[n+]2ccccc2)c(C(C)(C)CC)c1` it is 2.27 µM.
For the molecule `Cc1c2ccncc2c(C)c2c1[nH]c1ccccc12`, the AC50 was 5.21 µM.
Consider `CC1Sc2ccc(S(=O)(=O)N3CCC(C(=O)Nc4ccc(Cl)cc4)CC3)cc2NC1=O` (configuration not stated), for which the AC50 was 6.13 µM.
Turning to `Cc1ccc2nc(NC(=O)c3ccccn3)sc2c1`, the AC50 is 9.36 µM.
Consider `Cn1nc(C(C)(C)C)cc1C(=O)NCc1ccc(N2CCCC2=O)cc1`, for which the AC50 is 5.65 µM.
With `Cc1ccccc1NC(=O)/C=C/c1ccc([N+](=O)[O-])s1`, the AC50 is 6.96 µM.
The figure for `CC(=O)c1ccc(NC(=S)NC(C)c2ccc(Cl)cc2Cl)cc1` (configuration not stated) is 21.1 µM.
As for `O=C(Nc1nc(-c2ccccn2)cs1)c1cc(Cl)ccc1[N+](=O)[O-]`, the AC50 was 4.6 µM.
`CC(=O)c1cccc(N=c2scc(-c3ccc(S(=O)(=O)N4CCOCC4)cc3)n2CCO)c1`: the AC50 was 3.22 µM.
Regarding `CN(C1=C(NC(=O)c2ccccc2)C(=O)c2ccccc2C1=O)C1CCS(=O)(=O)C1` (configuration not stated), the AC50 is 4.84 µM.
For `Cc1cc(C)n(Cc2ccc(NC(=O)c3ccc(COc4ccccc4Br)cc3)cc2)n1`, the AC50 was 8.33 µM.
For `COc1ccc([N+](=O)[O-])c(S(=O)(=O)c2ccc(Cl)cc2)n1`, the AC50 is 7.61 µM.
Regarding `N#CC(c1ccc(Cl)cc1)c1ccc2c(C(F)(F)F)cc(C(F)(F)F)nc2n1` (configuration not stated), the AC50 was 0.898 µM.
On to `CN(C)C1CCN(Cc2cc(COCc3ccccc3)c3cccnc3c2O)C1` (configuration not stated), for which the AC50 is 10.9 µM.
Regarding `CCOC(=O)N1CCN(S(=O)(=O)c2ccc(C(=O)NNc3nc4cc(C)cc(C)c4s3)cc2)CC1`, the AC50 was 6.01 µM.
With `COc1ccc(OC)c(NC(=O)CSc2ncnc3c2cnn3-c2ccccc2Cl)c1`, the AC50 was 2.31 µM.
Turning to `Cc1ccc(C(=O)NC(=S)/C=C2\N(C)c3ccccc3C2(C)C)cc1`, the AC50 was 4.23 µM.
`Cc1cc(NC2CCCCC2)nc(NCc2ccccc2)n1`: the AC50 is 3.71 µM.
The result for `CCCCC[n+]1cccc2c3ccccc3ccc21` reads 5.92 µM.
The figure for `CCCCC(=O)NC(c1ccc(Cl)cc1Cl)c1ccc2cccnc2c1O` (configuration not stated) is 2.22 µM.
Turning to `COc1ccc2c(c1)[nH]c1c(N3CCN(Cc4ccc5c(c4)OCO5)CC3)ncnc12`, the AC50 is 3.45 µM.
The result for `O=C(NC(NC(=S)Nc1ccccc1)C(Cl)(Cl)Cl)c1cccc(Cl)c1` (configuration not stated) reads 13.9 µM.
The figure for `O=C(c1cc(-c2ccccc2Cl)nc2ccccc12)N1CCN(c2ccccn2)CC1` is 4.44 µM.
For `CCN(CC)c1ccc(C(=O)N/N=C/c2ccccc2OC(F)F)cc1`, the AC50 was 15.6 µM.
On to `COc1ccc(OC)c(NC(=O)CN(Cc2ccc(F)cc2)C2CCCCC2)c1`, for which the AC50 was 4.49 µM.
The result for `COc1ccc(Cc2nc(-c3ccc(NC(=O)c4cccnc4)cc3)no2)cc1` reads 0.286 µM.
Turning to `Oc1c(N=Nc2ccccn2)ccc2ccccc12`, the AC50 was 1.86 µM.
Take `CCCCC1(Cc2ccc([N+](=O)[O-])cc2)C(=O)N(c2ccccc2)N(c2ccccc2)C1=O`: the AC50 is 3.72 µM.
For `COc1ccccc1C(=O)Nc1nc2ccccc2[nH]1`, the AC50 was 1.22 µM.
As to `CC1CCc2c(sc3nc(C(C)(C)C)nc(N4CCN(C(=O)CCl)CC4)c23)C1` (configuration not stated), the AC50 is 7.59 µM.
Take `Nc1cc2c3c(cccc3c1)C(=O)N(CCN1CCCC1)C2=O`: the AC50 is 12.7 µM.
For the molecule `Cc1cc(N)c2cc(NC(=O)/C=C/c3ccccc3Cl)ccc2n1`, the AC50 was 14.2 µM.
The figure for `Oc1cccc(/C=N/Nc2ccc(Cl)nn2)c1O` is 4.69 µM; for `CN1/C(=C\C(=O)c2ccco2)C(C)(C)c2ccccc21` it is 7.58 µM.
The result for `CCCCCCCCCCn1c2c(c(=N)c3c1CCC3)CCC2` reads < 0.195 µM; that for `CCOC(=O)/C(=C\c1ccccc1)C(=O)c1cc(C(C)=O)c(Nc2ccccc2)s1`, 6.53 µM.
For `C=C1[C@@H](O)[C@@H]2O[C@]3(CC[C@H](/C=C/[C@@H](C)[C@@H]4CC(C)=CC5(O[C@H](C[C@@](C)(O)C(=O)OC)CC[C@H]5O)O4)O3)CC[C@H]2O[C@@H]1[C@@H](O)C[C@H](C)[C@H]1OC2(CCCCO2)CC[C@H]1C` (some centres not stated), the AC50 was < 0.195 µM.
For the molecule `C/C(=N\NC(=O)c1c(C)nc2ccccn12)c1ccc(O)cc1O`, the AC50 was 19.5 µM.
The result for `O=C1C(Cl)=C(Nc2ccc3cn[nH]c3c2)C(=O)c2ccccc21` reads 4.47 µM; that for `Cc1c(N/N=C(\C#N)C(=O)c2ccc(Cl)cc2)c(=O)n(-c2ccccc2)n1C`, 5.35 µM.
As to `COc1ccccc1N1CCN(c2ncc(C(=O)N3CCN(c4cccc(Cl)c4)CC3)c3ccccc23)CC1`, the AC50 was 4.69 µM.
As to `Cc1cc(C)nc(SCC(=O)NC2=NN=C(c3ccc(Br)cc3)CS2)n1`, the AC50 was 2.52 µM.
As for `O=C(CN1CC[n+]2c(-c3cccs3)csc21)c1ccc(-c2ccccc2)cc1`, the AC50 is 2.34 µM.
As for `Cc1ccc(N2C(=O)NC(=O)/C(=C\C=C\c3ccco3)C2=O)cc1C`, the AC50 was 5.85 µM.
For `COc1ccc(O)c(/C=N/Nc2nc(Nc3ccccc3)nc(-n3nc(C)cc3C)n2)c1`, the AC50 is 11.3 µM.
For the molecule `O=C(Nc1cccc(S(=O)(=O)Nc2ccc(Cl)cc2)c1)c1ccc(Cl)nc1`, the AC50 is 4.6 µM.
Turning to `C(#Cc1ccccc1)C[N+]1(CC#Cc2cccc3ccccc23)CCCC1`, the AC50 was 8.17 µM.
As for `CNC(=O)c1cc(Oc2ccc(NC(=O)Nc3ccc(Cl)c(C(F)(F)F)c3)cc2)ccn1`, the AC50 is 7.39 µM.
